Residues, ends and D or L forms follow the SMILES beside them.
Experiments:
MDA-MB231-luc cells = assay: MDA-MB231-luc experimental lung metastasis model; format: in vivo
Procedure: A mouse model of lung metastasis of breast cancer was prepared by injecting 1 × 10^6 MDA-MB231-luc cells into 6-week-old female BALB/c nude mice via tail vein. To monitor the localization of the tumor cells in the lungs, the mice were injected intraperitoneally with D-luciferin at a dose of 150 mg/kg body weight and subjected to a whole-body bioluminescence imaging using IVIS imaging system (Perkin Elmer) after a 10-min resting period. Mice (n = 10 per group) were randomly assigned to groups based on the luminescence intensity. At 1 h after tumor cell injection, tumor-bearing mice received intravenous injections of CD44v6-binding peptides through the tail vein (14.2 mg/kg body weight, thrice weekly for 3 weeks) alone or in combination with orally administered crizotinib in 5% dimethyl sulfoxide (DMSO) (25 mg/kg of body weight, twice weekly for 3 weeks) as previously described, [29]. Metastatic tumor growth after treatments was monitored by measuring the total photon flux (number of photons/second) in the whole body using the IVIS imaging system. The body weights of mice and tumor ulceration were monitored throughout the treatment period. At the end of the treatment period, half of the mice (n = 5 per group) were used for the collection of blood, sacrificed, the lungs were harvested and weighed, and the numbers of metastatic tumor nodules in the lungs were counted. The remaining mice (n = 5 per group) were maintained until death to determine the survival rates. For the analysis of hematological parameters, 1 mL of blood was collected from each mouse and separated into 500 µL aliquots used to prepare serum and plasma. Serum was obtained by centrifuging clotted blood at 4 °C twice, followed by filtration (pore size: 0.22 µm). Plasma was obtained by centrifuging ethylenediaminetetraacetic acid-treated samples. Hematological parameters and liver and kidney function markers were measured by DGMIF (Daegu, Korea).

MDA-MB231 cells [1] = assay: Annexin V/propidium iodide apoptosis assay, MDA-MB231; format: cell-based, human; settings: 2 h, versus combined NLN or NEW and KLA
Procedure: (§1) For apoptosis assays, cells were plated in 6-well plates at a density of 5 × 10^5 cells per well overnight and treated with different concentrations of peptides (0, 2, 4, 8, 16, 32, 64, 128, and 256 µM) at 37 °C for 2 h. Cells were harvested, washed, and mixed with annexin V binding buffer. Then, 1 μg/mL of propidium iodide and 5 μL of APC annexin V reagent (ThermoFisher Scientific, Waltham, MA) were added to stain necrotic and apoptotic cells. Percent of annexin V-positive and propidium iodide-negative cells were measured using flow cytometry.

4T1 cells = assay: Annexin V/propidium iodide apoptosis assay, 4T1; format: cell-based, mouse; settings: 2 h, versus combined NLN or NEW and KLA
Procedure: as §1

Panc-1 cells [2] = assay: Annexin V/propidium iodide apoptosis assay, Panc-1; format: cell-based, human; settings: 2 h, versus combined NLN or NEW and KLA
Procedure: as §1

MDA-MB231 cells [3] = assay: Intracellular trafficking with MitoTracker and LysoTracker; format: cell-based, human; settings: peptide 10 µM, 37 °C, 2-4 h, confocal
Procedure: To examine the intracellular trafficking of peptides cells were incubated with peptides (10 µM) at 37 °C for 2 h and stained with MitoTracker Deep Red FM (ThermoFisher Scientific), a mitochondrial marker. In another set of experiments, cells were incubated with peptides at 37 °C for 4 h and stained with LysoTracker Red DND-99 (ThermoFisher Scientific), a late endosome/lysosome marker. After staining, cells were fixed with 4% paraformaldehyde for 10 min at room temperature, stained with DAPI, and then mounted using ProLong gold anti-fade reagent (ThermoFisher Scientific). Subcellular fluorescence was detected using a confocal microscope (Zeiss).

4T1-luc cells = assay: 4T1-luc orthotopic spontaneous metastasis model; format: in vivo; settings: 10 mg/kg i.v. thrice weekly for 3 weeks; for hematologic parameters and liver and kidney functional marker levels: n = 5/group; for luminescence signals and total photon flux from the whole body: n = 10 per group; for luminescence signals and total photon flux from the whole body / TUNEL-positive apoptotic cells in primary tumor tissues / number of metastatic tumor nodules / percent survival / tumor volume / tumor weight: more efficiently than combined NLN or NEW and KLA
Procedure: (§2) 4T1-luc cells (1 × 10^6 cells) were orthotopically inoculated into the mammary fat pads in 6-week-old female BALB/c mice. Panc-1 cells (1 × 10^6 cells) were subcutaneously inoculated into lower right flank in 6-week-old female BALB/c nude mice To monitor 4T1-luc tumor growth, mice were intraperitoneally injected with D-luciferin (150 mg/kg body weight), incubated for 10 min, and subjected to a whole-body bioluminescence imaging using the IVIS imaging system (Perkin Elmer). At two weeks after the inoculation, mice were randomly sorted into groups based on the luminescence intensity (4T1-luc) or tumor size (Panc-1). CD44v6-binding peptides were administered intravenously to 4T1 tumor-bearing mice (n = 6 per group) through the tail vein (14.2 mg/kg body weight, thrice weekly for three weeks) alone or in combination with crizotinib. Crizotinib in 5% DMSO was administered orally (12.5 and 25 mg/kg body weight, twice weekly for three weeks). CD44v6-targeted pro-apoptotic peptides or CD44v6-binding peptides and pro-apoptotic peptide in combination were intravenously administered to 4T1 or Panc-1 tumor-bearing mice (n = 10 per group) through the tail vein (10 mg/kg body weight, thrice weekly for 3 weeks). Primary tumor growth was monitored by measuring tumor volumes using a caliper and total photon flux in the whole body using the IVIS imaging system. The body weights and tumor ulceration were monitored throughout the treatment period. At the end of the treatments, half of the mice were used for the collection of blood, sacrificed, and the primary tumor weights and numbers of metastatic tumor nodules in the isolated lungs were determined. The remaining mice were maintained until death to determine the survival rates. The hematological parameters and liver and kidney function markers in plasma and serum samples were analyzed as described above. The normal ranges of hematological parameters of the BALB/c mouse and BALB/c nude mouse were obtained from Charles River Laboratories website (www.criver.com).

Panc-1 cells [4] = assay: Panc-1 subcutaneous spontaneous metastasis model; format: in vivo, BALB/c nude mouse; settings: 10 mg/kg i.v. thrice weekly for 3 weeks; more efficiently than combined NLN or NEW and KLA
Procedure: as §2

[5] = biological target: CD44v6, endogenous in MDA-MB231 human breast tumor cells (human (endogenous in MDA-MB231)); assay: saturation binding to cells; saturation binding assays on MDA-MB231, 4T1, Panc-1 and MCF7 cells (Figure S2A); method and label of the peptide not given
Sequence of CD44v6, endogenous in MDA-MB231 human breast tumor cells (human (endogenous in MDA-MB231)) (P16070 21-742): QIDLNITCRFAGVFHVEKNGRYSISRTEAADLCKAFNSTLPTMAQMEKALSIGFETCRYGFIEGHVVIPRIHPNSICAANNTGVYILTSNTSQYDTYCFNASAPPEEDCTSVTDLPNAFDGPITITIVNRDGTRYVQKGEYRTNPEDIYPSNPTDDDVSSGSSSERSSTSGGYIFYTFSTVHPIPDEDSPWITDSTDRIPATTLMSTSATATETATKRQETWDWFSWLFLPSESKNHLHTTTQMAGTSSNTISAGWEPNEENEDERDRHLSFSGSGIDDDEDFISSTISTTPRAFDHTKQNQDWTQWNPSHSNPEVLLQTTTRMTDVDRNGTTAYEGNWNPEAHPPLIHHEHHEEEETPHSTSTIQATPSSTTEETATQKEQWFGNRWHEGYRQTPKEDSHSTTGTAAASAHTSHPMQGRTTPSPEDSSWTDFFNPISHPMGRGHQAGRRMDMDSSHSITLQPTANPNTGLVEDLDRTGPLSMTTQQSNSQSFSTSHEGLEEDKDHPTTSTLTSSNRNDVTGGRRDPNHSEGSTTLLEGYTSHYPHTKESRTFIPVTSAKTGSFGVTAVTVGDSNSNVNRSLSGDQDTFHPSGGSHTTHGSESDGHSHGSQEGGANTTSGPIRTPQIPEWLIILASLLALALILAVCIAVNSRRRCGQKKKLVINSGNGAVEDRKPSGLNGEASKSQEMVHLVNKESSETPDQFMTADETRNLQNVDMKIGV

In the case of `C[C@@H](Oc1cc(-c2cnn(C3CCNCC3)c2)cnc1N)c1c(Cl)ccc(F)c1Cl` [crizotinib, reference compound], the “growth of MDA-MB231-luc metastases in the lungs” value (MDA-MB231-luc cells; crizotinib 25 mg/kg oral twice weekly for 3 weeks) is reported as “inhibited” and the survival rate (MDA-MB231-luc cells; peptide 14.2 mg/kg i.v. thrice weekly or crizotinib 25 mg/kg oral twice weekly, 3 weeks, single treatment) is reported as “increased the survival rate”.

`CC[C@H](C)[C@H](NC(=O)[C@@H](NC(=O)[C@H](CC(N)=O)NC(=O)[C@H](CC(C)C)NC(=O)[C@H](CC(N)=O)NC(=O)[C@@H](N)CS)[C@@H](C)O)C(=O)N[C@@H](CC(=O)O)C(=O)N[C@H](C(=O)N[C@@H](CS)C(=O)NCC(=O)NCC(=O)NCC(=O)N[C@@H](CCCCN)C(=O)N[C@@H](CC(C)C)C(=O)N[C@@H](C)C(=O)N[C@@H](CCCCN)C(=O)N[C@@H](CC(C)C)C(=O)N[C@@H](C)C(=O)N[C@@H](CCCCN)C(=O)N[C@@H](CCCCN)C(=O)N[C@@H](CC(C)C)C(=O)N[C@@H](C)C(=O)N[C@@H](CCCCN)C(=O)N[C@@H](CC(C)C)C(=O)N[C@@H](C)C(=O)N[C@@H](CCCCN)C(=O)O)[C@@H](C)O` [NLN-KLA] (H-CNLNTIDTCGGGKLAKLAKKLAKLAK-OH) was tested, and the “induction of apoptosis, MDA-MB231” value (MDA-MB231 cells [1]) was “more efficiently than the combined treatment”, the “induction of apoptosis, 4T1” value (4T1 cells) was “more efficiently than the combined treatment” and the “induction of apoptosis, Panc-1” value (Panc-1 cells [2]) was “more efficiently than the combined treatment”. For the same molecule, the intracellular localization (MDA-MB231 cells [3]) was “closely co-localized with mitochondria and lysosomes”, the “hematologic parameters and liver and kidney functional marker levels” value (4T1-luc cells) was “within or close to the normal ranges” and the “luminescence signals and total photon flux from the whole body” value (4T1-luc cells) was “decreased”. For the same molecule, the “TUNEL-positive apoptotic cells in primary tumor tissues” value (4T1-luc cells) was “increasing”, the “number of metastatic tumor nodules” value (4T1-luc cells) was “reduced” and the percent survival (4T1-luc cells) was “increasing”. For the same molecule, the tumor volume (4T1-luc cells) was “reduced”, the tumor weight (4T1-luc cells) was “reduced” and the “percent survival and TUNEL-positive apoptotic cells in tumor tissues” value (Panc-1 cells [4]) was “increased”. The “tumor growth and metastasis to the lungs” value (Panc-1 cells [4]) was “inhibited”.

For `CC(C)C[C@H](NC(=O)[C@H](CCCCN)NC(=O)CNC(=O)CNC(=O)CNC(=O)[C@H](CS)NC(=O)[C@H](CO)NC(=O)[C@H](CCCCN)NC(=O)[C@H](CC(C)C)NC(=O)[C@H](CCC(N)=O)NC(=O)[C@H](Cc1c[nH]c2ccccc12)NC(=O)[C@H](CCC(=O)O)NC(=O)[C@H](CC(N)=O)NC(=O)[C@@H](N)CS)C(=O)N[C@@H](C)C(=O)N[C@@H](CCCCN)C(=O)N[C@@H](CC(C)C)C(=O)N[C@@H](C)C(=O)N[C@@H](CCCCN)C(=O)N[C@@H](CCCCN)C(=O)N[C@@H](CC(C)C)C(=O)N[C@@H](C)C(=O)N[C@@H](CCCCN)C(=O)N[C@@H](CC(C)C)C(=O)N[C@@H](C)C(=O)N[C@@H](CCCCN)C(=O)O` [NEW-KLA] (H-CNEWQLKSCGGGKLAKLAKKLAKLAK-OH), the “induction of apoptosis, MDA-MB231” value (MDA-MB231 cells [1]) was “more efficiently than the combined treatment”, the “induction of apoptosis, 4T1” value (4T1 cells) was “more efficiently than the combined treatment” and the “induction of apoptosis, Panc-1” value (Panc-1 cells [2]) was “more efficiently than the combined treatment”. The intracellular localization (MDA-MB231 cells [3]) was “closely co-localized with mitochondria and lysosomes”, the “hematologic parameters and liver and kidney functional marker levels” value (4T1-luc cells) was “within or close to the normal ranges” and the “luminescence signals and total photon flux from the whole body” value (4T1-luc cells) was “decreased”. For the same molecule, the “TUNEL-positive apoptotic cells in primary tumor tissues” value (4T1-luc cells) was “increasing”, the “number of metastatic tumor nodules” value (4T1-luc cells) was “reduced” and the percent survival (4T1-luc cells) was “increasing”. The tumor volume (4T1-luc cells) was “reduced”, the tumor weight (4T1-luc cells) was “reduced” and the “percent survival and TUNEL-positive apoptotic cells in tumor tissues” value (Panc-1 cells [4]) was “increased”. The “tumor growth and metastasis to the lungs” value (Panc-1 cells [4]) was “inhibited”.

CNLNTIDTC [… peptide (NLN), label not stated] was tested, and the Kd [5] was 12 µM.

Molecule CNEWQLKSC [… peptide (NEW), label not stated] has a Kd [5] of 18 µM.

Reference: PMC7738880, “Identification of novel CD44v6-binding peptides that block CD44v6 and deliver a pro-apoptotic peptide to tumors to inhibit tumor growth and metastasis in mice” (Theranostics, 2021)
